In brackets after ≈: the same amount, converted by molar mass. Activity calls are given as the source filed them. No cut-off for these calls is given here.
Experiments:
[1] = system: Plasmodium falciparum; experiment: Antimalarial activity against chloroquine-resistant Plasmodium falciparum Dd2 at 120 uM after 72 hrs by DAPI stain; format: functional
[2] = system: HeLa; experiment: Cytotoxicity against human HeLa cells upto 120 uM after 72 hrs by alamar blue assay; format: functional, cell-based
[3] = system: HEK293; experiment: Cytotoxicity against HEK293 cells upto 120 uM after 72 hrs by alamar blue assay; format: cell-based; settings: human, hek293, 72 h
[4] = system: Trypanosoma brucei; experiment: Antitrypanosomal activity against Trypanosoma brucei BS427 upto 120 uM after 48 hrs by alamar blue assay; format: functional, organism-based
[5] = system: Staphylococcus; experiment: Antibacterial activity against Staphylococcus albus epidermis strain at 800 ug/mL after 19 to 20 hrs by agar hole punch diffusion assay; format: functional, organism-based
[6] = system: Escherichia coli; experiment: Antibacterial activity against Escherichia coli K-12 after 19 to 20 hrs by agar hole punch diffusion assay; format: functional
[7] = system: Saccharomyces cerevisiae; experiment: Antibacterial activity against Saccharomyces cerevisiae after 19 to 20 hrs by agar hole punch diffusion assay; format: functional

**Q.** For CC[C@@H](C)[C@@H](NC(=O)[C@@H](NC(=O)[C@H](NC(=O)CCCCC(N)Cc1ccc(OC)cc1)[C@@H](O[C@@H]1O[C@@H](C(=O)O)[C@@H](O)[C@H](OC(N)=O)[C@H]1O)c1c[nH]c(=O)[nH]1)[C@@H](C)CC)C(=O)O (some centres not stated) [CITRONAMIDE A], which Activity [1] is on record?
**A.** 24%

**Q.** And the Activity [2]?
**A.** inactive

**Q.** And the Activity [3]?
**A.** Not Active

**Q.** And the Activity [4]?
**A.** inactive

**Q.** What about the Activity [5] of the same compound?
**A.** inactive

**Q.** What about the MIC [6] of the same compound?
**A.** 80 µg/mL (≈ 92.4 µM)

**Q.** And the MIC [7]?
**A.** 8 µg/mL (≈ 9.24 µM)
